{
  "source": "ChEMBL document CHEMBL4837249",
  "about": "“Discovery of Potent Antiallergic Agents Based on an o-Aminopyridinyl Alkynyl Scaffold” (J Med Chem, 2021)",
  "key": {"[1]": {"assay": "Half life in BALB/c mouse at 2 mg/kg, iv measured up to 24 hrs by LC-MS/MS analysis", "format": "ADME, organism-based", "conditions": "in vivo"}, "RBL-2H3": {"system": "RBL-2H3", "assay": "Inhibition of p38 MAPK phosphorylation in rat RBL-2H3 cells assessed as inhibition of Fc epsilonRI-mediated signal transduction by Western blot analysis", "format": "cell-based", "conditions": "dose 8-200 nM"}, "[2]": {"assay": "Toxicity in anti-DNP IgE sensitized BALB/c mouse assessed as body weight loss at 40 mg/kg, po", "format": "organism-based", "conditions": "in vivo"}, "[3]": {"target": "Tyrosine-protein kinase SYK (Rattus norvegicus) (UniProt Q64725)", "sequence (Q64725 whole entry, looked up)": "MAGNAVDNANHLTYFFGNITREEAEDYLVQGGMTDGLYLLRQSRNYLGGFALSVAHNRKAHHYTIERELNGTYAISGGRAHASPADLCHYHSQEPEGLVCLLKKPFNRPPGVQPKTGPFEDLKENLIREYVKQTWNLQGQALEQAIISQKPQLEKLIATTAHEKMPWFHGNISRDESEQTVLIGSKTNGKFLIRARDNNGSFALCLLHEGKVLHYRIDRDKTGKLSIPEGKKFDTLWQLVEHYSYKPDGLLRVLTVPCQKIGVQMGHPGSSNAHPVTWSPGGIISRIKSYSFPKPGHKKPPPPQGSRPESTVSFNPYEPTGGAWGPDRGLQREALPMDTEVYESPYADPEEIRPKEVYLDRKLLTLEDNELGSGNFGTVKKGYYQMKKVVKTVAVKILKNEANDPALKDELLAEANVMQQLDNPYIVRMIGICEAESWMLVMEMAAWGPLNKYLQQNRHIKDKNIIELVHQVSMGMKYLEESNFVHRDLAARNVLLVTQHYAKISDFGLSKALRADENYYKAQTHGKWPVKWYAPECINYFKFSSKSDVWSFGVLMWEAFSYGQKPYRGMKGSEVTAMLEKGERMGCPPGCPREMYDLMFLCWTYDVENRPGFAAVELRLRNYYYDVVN", "assay": "Inhibition of Syk phosphorylation in rat RBL-2H3 cells assessed as inhibition of Fc epsilonRI-mediated signal transduction by Western blot analysis", "format": "cell-based", "conditions": "dose 8-200 nM"}, "[4]": {"assay": "Toxicity in anti-DNP IgE sensitized BALB/c mouse assessed as hepatopathy at 40 mg/kg, po", "format": "organism-based", "conditions": "in vivo"}},
  "data": [
    {"smiles": "Cc1ccc(C(=O)Nc2cc(C(F)(F)F)cc(C(F)(F)F)c2)cc1C#Cc1cc(-c2cnn(C)c2)cnc1N", "values": [
      {"measurement": "half-life", "setting": "[1]", "result": 5.57, "unit": "h"},
      {"measurement": "inhibition", "setting": "RBL-2H3", "result": "Dose-Dependent Effect"},
      {"measurement": "Activity", "setting": "[2]", "result": "Non-Toxic"},
      {"measurement": "inhibition", "setting": "[3]", "result": "Dose-Dependent Effect"},
      {"measurement": "Activity", "setting": "[4]", "result": "Non-Toxic"}
    ]}
  ]
}
